Measured values: ChEMBL document CHEMBL2434821, “New phenstatin-fatty acid conjugates: synthesis and evaluation” (Bioorg Med Chem Lett, 2013)

Experiment: Cytotoxicity against human KB-3-1 cells assessed as cell survival at 0.5 uM after 72 hrs by MTT assay relative to control
Conditions: KB 3-1, 72 h

Compound: CCCCC/C=C\C/C=C\CCCCCCCC(=O)Oc1cc(C(=O)c2cc(OC)c(OC)c(OC)c2)ccc1OC
- cell survival at 0.5 µM: 20%
